Patent publication US20080008669A1, “Photostable sunscreen compositions comprising cinnamate ester UV-B filters and s-triazine compounds” (L'OREAL, priority 2006, published 2008)

Assay: Measurement of photostability of the cinnamate UV-B filter in emulsion formulas on PMMA plates under SUN TEST xenon lamp
Type: physicochemical
Conditions: Formulas 9-11 (1-4% of Example 1) compared with control Formula 8

**Q.** Which “Photostability of the cinnamate ester in the presence of the compound” value does the source give for `CCCCOC(=O)c1ccc(Nc2nc(Nc3ccc(C=C(C(=O)OCC(C)(C)C)C(=O)OCC(C)(C)C)cc3)nc(Nc3ccc(C=C(C(=O)OCC(C)(C)C)C(=O)OCC(C)(C)C)cc3)n2)cc1` [Example 1, 2,4-bis-(dineopentyl 4′-aminobenzalmalonate)-6-(butyl 4″-aminobenzoate)-s-triazine] here?
**A.** Its value is “improvement in the photostability of the cinnamate ester is clearly seen”.
